Measured values: US10149885B2, “Method of treatment or prophylaxis of infections of the eye” (STARPHARMA PTY LIMITED, priority 2012, dated 2018)
≈ marks a conversion by molar mass, not a printed value. Read-outs that look alike come from different tables or passages of the source.

Legend:
Adenovirus = test: Plaque reduction neutralization test (NR), positive control, subtype not given; assay type: cell-based; settings: unidentified adenovirus
Experimental: (§1) The Plaque reduction neutralization test (NR) is used to quantify the ability of a dendrimer to neutralize/inactivate virus. The dendrimer solution to be tested is diluted and mixed with a viral suspension. This is incubated to allow the dendrimer to react with the virus. This is poured over a confluent monolayer of host cells. The surface of the cell layer is covered in a layer of agar or carboxymethyl cellulose to prevent the virus from spreading. The concentration of plaque forming units can be estimated by the number of plaques (regions of infected cells) formed after a few days. Depending on the virus, the plaque forming units are measured by microscopic observation, fluorescent labelled antibodies or specific dyes that react with infected cells. The concentration of dendrimer to reduce the number of plaques by 50% compared to the dendrimer free virus gives the EC50 value.
Ribivirin was included as a positive control.

Adeno-1 [1] = test: Cytopathic assay (CPE); assay type: cell-based, Adenovirus; settings: Adeno-1/CPE
Experimental: For the Cytopathic assay (CPE) Plates of cells were incubated with the respective adenovirus subtype and drug at different drug concentrations. Cells were incubated until a Cytopathic effect was clearly observed in plates where cells and virus were plated without drug. In plates where drug was added, the cytopathic effect was quantified using a light microscope and expressed as 0% (no effect) up to 100% (effect as strong as in the no drug control plates). CPE readings were plotted against the drug concentration and the EC50 value was determined as the drug concentration where 50% CPE was observed.

Adeno-5 = test: Plaque reduction neutralization test (NR); assay type: cell-based, Adenovirus; settings: Adeno-5/NR
Experimental: as §1

Adeno-1 [2] = test: Plaque reduction neutralization test (NR); assay type: cell-based, Adenovirus; settings: Adeno-1/NR
Experimental: as §1

[3] = tested on: Lactobacillus acidophilus MMX 5716; test: Serial passage resistance development, MIC; assay type: cell-based; settings: for MIC: Lactobacillus acidophilus
[4] = tested on: Prevotella bivia MMX 3447; test: Serial passage resistance development, MIC; assay type: cell-based; settings: for MIC: Prevotella bivia
[5] = tested on: Gardnerella vaginalis ATCC 14018 (MMX 4153); test: Serial passage resistance development, MIC; assay type: cell-based; settings: for MIC: Gardnerella vaginalis
[6] = tested on: Mobiluncus curtisii ATCC 35241 (MMX 4145); test: Serial passage resistance development, MIC; assay type: cell-based; settings: for MIC: Mobiluncus curtisii
Ad5 McEwen = test: In vivo treatment of adenoviral eye infection, ocular cultures titred by plaque assay; design: species or system NZW female rabbits; settings: 0.5% cidofovir in saline, 37 μL per eye twice a day, n = 8-10
Experimental: Following general anesthesia and corneal scarification, NZW female rabbits were inoculated in each eye with 50 μl of 3.0×10^7 PFU/mL (1.5×10^6 PFU/eye) of Ad5 McEwen. At about 3 hours after inoculation, a swab was taken of the tear film and corneal and conjunctival surfaces into tubes containing 1 mL of outgrowth media, and cultured for adenovirus.
The rabbits were then divided into 3 groups: 3% SPL7013 (n=5), Vehicle (n=5) and 0.5% cidofovir in saline as positive control (n=4). Commencing on day 1, animals were treated in each eye with 37 μL of drug 8 times a day, or 37 μL of control twice a day. Swabs of the tear film and corneal and conjunctival surfaces were taken one hour after treatment.
Ad5 titers were determined on A549 lung carcinoma cell monolayers using a standard plaque assay. The ocular cultures were diluted and inoculated onto A549 monolayers, and the virus adsorbed for 3 hours. Following adsorption, 1 mL of media plus 0.5% methylcellulose was added to each well, and the plates were incubated at 37° C. in a 5% CO2-water vapor atmosphere for 7 days, then stained with 0.5% gentian violet, and plaques were counted.

[7] = tested on: Adenovirus subtype 19 (ATCC #VR-254); test: Adenoviral replication titer reduction, drug added after infection (control protocol); assay type: cell-based; settings: for Percent reduction of adenoviral replication: Adeno-19, Chang C cells
From the text: (§2) Adenovirus subtype 5 (ATCC #VR-5) was used with HeLa cells (ATCC #CCL-2), Adenovirus subtype 8 (ATCC #VR-1640) was used with A549 cells (ATCC #CCL-185), Adenovirus subtype 19 (ATCC #VR-254) was used with Chang C cells (ATCC #CCL-20.2) and Adenovirus 37 (ATCC #VR-929) was used with WI-38 cells (ATCC #CCL-75). Both epithelial and fibroblast cell types were used. The recovered virus was titrated in the susceptible cell lines by performing dilutions at 1/10 to 1/100,000 and addition to cells in plates. When cytopathic effect (CPE) was apparent in the virus control, titration plates were classified as positive or negative for cytopathic effect and based on the dilution of the virus applied to the different plates, the 50% tissue-culture infective dose (TCID50) was calculated using the Spearman-Kärber method (Hubert, J J (1984) Spearman-Karber Method in Bioaasay. Hunt, Dubuque, Iowa, pp 65, 66). The TCID50 establishes the dilution at which 50% of the plates show a cytopathic effect (infection). Comparing the TCID50 for sample without SPL7013 with the TCID50 values for samples with different concentrations of SPL7013 provides a measure of the percent reduction of infection achieved by each concentration of SPL7013. This percent reduction represents the activity of SPL7013 against penetration of cells with adenoviruses. A control substance (cidofovir) was tested alongside SPL7013 at 20 μg/mL, 2 μg/mL, 0.2 μg/mL and 0.02 μg/mL (Gordon Y J, Antiviral Research, 1991, 16(1), 11-16). Because cidofovir acts later in the viral replication cycle, target cells were first infected with 0.1 MOI virus and incubated 60 minutes at 37° C.±2° C. Virus was removed, cidofovir was added at the respective concentrations and cells were incubated until CPE reached its maximum. Cells were then lysed and virus was titrated as described above.

[8] = tested on: Adenovirus subtype 8 (ATCC #VR-1640); test: as above; assay type: cell-based; settings: for Percent reduction of adenoviral replication: Adeno-8, A549 cells
From the text: as §2

[9] = tested on: Adenovirus 37 (ATCC #VR-929); test: as above; assay type: cell-based; settings: for Percent reduction of adenoviral replication: Adeno-37, WI-38 cells
From the text: as §2

[10] = tested on: Adenovirus subtype 5 (ATCC #VR-5); test: as above; assay type: cell-based; settings: for Percent reduction of adenoviral replication: Adeno-5, HeLa cells
From the text: as §2

[11] = ATCC14018, read-out: MIC after serial passage
[12] = ATCC14018, read-out: MIC at baseline

NC(=O)c1ncn([C@@H]2O[C@H](CO)[C@@H](O)[C@H]2O)n1 [Ribavirin]
EC50 (Adenovirus): 10 µg/mL (≈ 40.9 µM)

[NH3][PAMAM]4NHCSNH-2-naphth-5,7-(SO3Na)2]24
EC50 (Adeno-1 [1]): 20 µg/mL

[NH3][PAMAM]2[CSNH-3,5-Ph(SO3Na)2]24
EC50 (Adeno-5): 150 µg/mL

[BHALys][Lys]32deoxycholicacid[NHCSNH-4-ph-SO3Na]63
EC50 (Adeno-1 [2]): 10 µg/mL
EC50 (Adeno-1 [1]): 20 µg/mL

CO[C@H]1/C=C/O[C@@]2(C)Oc3c(C)c(O)c4c(O)c(c5c(nc6cc(C)ccn65)c4c3C2=O)NC(=O)/C(C)=C\C=C\[C@H](C)[C@H](O)[C@@H](C)[C@@H](O)[C@@H](C)[C@H](OC(C)=O)[C@@H]1C [Rifaximin]
MIC ([3]; MMX5716, read-out: MIC after serial passage): 64 µg/mL (≈ 81.4 µM)
MIC ([3]; MMX5716, read-out: MIC at baseline): 1 µg/mL (≈ 1.27 µM)
Fold increase of MIC ([3]; by passage 9): 64 fold
MIC ([4]; MMX3447, read-out: MIC after serial passage): 0.12 µg/mL (≈ 0.153 µM)
MIC ([4]; MMX3447, read-out: MIC at baseline): 0.03 µg/mL (≈ 0.0382 µM)
Fold increase of MIC ([4]; passage number not given): 4 fold
MIC [5, 11]: 128 µg/mL (≈ 163 µM)
MIC [5, 12]: 0.06 µg/mL (≈ 0.0763 µM)
Fold increase of MIC ([5]; by passage 9): > 2000 fold
Change of MIC during passage (in words) ([6]; 10 serial passages): No apparent increase

Cc1ncc([N+](=O)[O-])n1CCO [Metronidazole]
MIC [5, 11]: > 128 µg/mL
MIC [5, 12]: 4 µg/mL (≈ 23.4 µM)
Fold increase of MIC ([5]; by passage 7): > 64 fold
MIC ([6]; ATCC35241, read-out: MIC after serial passage): > 128 µg/mL
MIC ([6]; ATCC35241, read-out: MIC at baseline): 8 µg/mL (≈ 46.7 µM)
Fold increase of MIC ([6]; by passage 5): > 16 fold

Nc1ccn(C[C@@H](CO)OCP(=O)(O)O)c(=O)n1 [cidofovir]
% Ad5 -Positive cultures (Ad5 McEwen; Day 0 (before treatment)): 100%
% Ad5 -Positive cultures (Ad5 McEwen; Day 1): 100%
% Ad5 -Positive cultures (Ad5 McEwen; Day 3): 100%
% Ad5 -Positive cultures (Ad5 McEwen; Day 4): 75%
Percent reduction of adenoviral replication ([7]; cidofovir 0.02 μg/mL): 0.00%
Percent reduction of adenoviral replication ([7]; cidofovir 0.2 μg/mL): 0.00%
Percent reduction of adenoviral replication ([7]; cidofovir 2 μg/mL): 43.77%
Percent reduction of adenoviral replication ([7]; cidofovir 20 μg/mL): 94.38%
IC50 ([7]; unidentified adenovirus, Adeno-19, estimated, molar basis (279 g/mol)): 52400 nM
Percent reduction of adenoviral replication ([8]; cidofovir 0.02 μg/mL): 90.00%
Percent reduction of adenoviral replication ([8]; cidofovir 0.2 μg/mL): 98.22%
Percent reduction of adenoviral replication ([8]; cidofovir 2 μg/mL): 98.67%
Percent reduction of adenoviral replication ([8]; cidofovir 20 μg/mL): 99.00%
IC50 ([8]; unidentified adenovirus, Adeno-8, estimated, molar basis (279 g/mol)): 112 nM
Percent reduction of adenoviral replication ([9]; cidofovir 0.02 μg/mL): 0.00%
Percent reduction of adenoviral replication ([9]; cidofovir 0.2 μg/mL): 57.83%
Percent reduction of adenoviral replication ([9]; cidofovir 2 μg/mL): 99.99%
Percent reduction of adenoviral replication ([9]; cidofovir 20 μg/mL): >99.99%
IC50 ([9]; unidentified adenovirus, Adeno-37, estimated, molar basis (279 g/mol)): 112 nM
Percent reduction of adenoviral replication ([10]; cidofovir 0.02 μg/mL): 68.38%
Percent reduction of adenoviral replication ([10]; cidofovir 0.2 μg/mL): 82.22%
Percent reduction of adenoviral replication ([10]; cidofovir 2 μg/mL): 86.66%
Percent reduction of adenoviral replication ([10]; cidofovir 20 μg/mL): 90.00%
IC50 ([10]; unidentified adenovirus, Adeno-5, estimated, molar basis (279 g/mol)): 559 nM
